A value given as a limit tells only on which side of the number the result lay.

Consider 27 molecules from patent publication US10793563B2, “GCN2 inhibitors and uses thereof” (Merck Patent GmbH, priority 2018, dated 2020).

Test [1] addresses intracellular GCN2 (phosphorylation of the GCN2 substrate eIF2α) (Homo sapiens (Human), UniProt Q9P2K8). Put plainly: GCN2 Cellular Inhibition Assay (AlphaScreen SureFire P-eIF2α Ser51, borrelidin-treated U2OS cells). The class given is cell-based. The following applies: 10 μM borrelidin, 1 h, phosphorylated eIF2α Ser51, read-out: GCN2 Biomarker (IC50). The method, boiled down: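 Phospho-eIF2α (Ser51) measured by AlphaScreen SureFire in lysates of U2OS cells stimulated 1 h at 37 °C with 10 μM borrelidin alongside compound, 4-fold dilutions from 40 μM. Inhibition expressed as percent relative to borrelidin-alone controls.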

Test [2] deals with GCN2 kinase (Homo sapiens (Human), UniProt Q9P2K8). Put plainly: GCN2 Enzyme Inhibition Assay (Transcreener ADP2 fluorescence polarization). The class given is biochemical. The following applies: 280 μM ATP, 200 μM (RS)7 peptide, 4 nM GCN2, 25° C.; for Ki: Ki(app). A digest of the protocol: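 At 25 °C, GCN2 kinase (typical final concentration 4 nM) and (RS)7 peptide in Tris-HCl pH 7.5 buffer with MgCl2, NaCl and DTT were preincubated with compound for 10 min, then ATP was added for a 1 h reaction. ADP was read by FP with antibody/Alexa633 tracer. Non-linear tight-binding analysis gave IC50 and apparent Ki.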
Chain of GCN2 kinase (Q9P2K8 whole entry): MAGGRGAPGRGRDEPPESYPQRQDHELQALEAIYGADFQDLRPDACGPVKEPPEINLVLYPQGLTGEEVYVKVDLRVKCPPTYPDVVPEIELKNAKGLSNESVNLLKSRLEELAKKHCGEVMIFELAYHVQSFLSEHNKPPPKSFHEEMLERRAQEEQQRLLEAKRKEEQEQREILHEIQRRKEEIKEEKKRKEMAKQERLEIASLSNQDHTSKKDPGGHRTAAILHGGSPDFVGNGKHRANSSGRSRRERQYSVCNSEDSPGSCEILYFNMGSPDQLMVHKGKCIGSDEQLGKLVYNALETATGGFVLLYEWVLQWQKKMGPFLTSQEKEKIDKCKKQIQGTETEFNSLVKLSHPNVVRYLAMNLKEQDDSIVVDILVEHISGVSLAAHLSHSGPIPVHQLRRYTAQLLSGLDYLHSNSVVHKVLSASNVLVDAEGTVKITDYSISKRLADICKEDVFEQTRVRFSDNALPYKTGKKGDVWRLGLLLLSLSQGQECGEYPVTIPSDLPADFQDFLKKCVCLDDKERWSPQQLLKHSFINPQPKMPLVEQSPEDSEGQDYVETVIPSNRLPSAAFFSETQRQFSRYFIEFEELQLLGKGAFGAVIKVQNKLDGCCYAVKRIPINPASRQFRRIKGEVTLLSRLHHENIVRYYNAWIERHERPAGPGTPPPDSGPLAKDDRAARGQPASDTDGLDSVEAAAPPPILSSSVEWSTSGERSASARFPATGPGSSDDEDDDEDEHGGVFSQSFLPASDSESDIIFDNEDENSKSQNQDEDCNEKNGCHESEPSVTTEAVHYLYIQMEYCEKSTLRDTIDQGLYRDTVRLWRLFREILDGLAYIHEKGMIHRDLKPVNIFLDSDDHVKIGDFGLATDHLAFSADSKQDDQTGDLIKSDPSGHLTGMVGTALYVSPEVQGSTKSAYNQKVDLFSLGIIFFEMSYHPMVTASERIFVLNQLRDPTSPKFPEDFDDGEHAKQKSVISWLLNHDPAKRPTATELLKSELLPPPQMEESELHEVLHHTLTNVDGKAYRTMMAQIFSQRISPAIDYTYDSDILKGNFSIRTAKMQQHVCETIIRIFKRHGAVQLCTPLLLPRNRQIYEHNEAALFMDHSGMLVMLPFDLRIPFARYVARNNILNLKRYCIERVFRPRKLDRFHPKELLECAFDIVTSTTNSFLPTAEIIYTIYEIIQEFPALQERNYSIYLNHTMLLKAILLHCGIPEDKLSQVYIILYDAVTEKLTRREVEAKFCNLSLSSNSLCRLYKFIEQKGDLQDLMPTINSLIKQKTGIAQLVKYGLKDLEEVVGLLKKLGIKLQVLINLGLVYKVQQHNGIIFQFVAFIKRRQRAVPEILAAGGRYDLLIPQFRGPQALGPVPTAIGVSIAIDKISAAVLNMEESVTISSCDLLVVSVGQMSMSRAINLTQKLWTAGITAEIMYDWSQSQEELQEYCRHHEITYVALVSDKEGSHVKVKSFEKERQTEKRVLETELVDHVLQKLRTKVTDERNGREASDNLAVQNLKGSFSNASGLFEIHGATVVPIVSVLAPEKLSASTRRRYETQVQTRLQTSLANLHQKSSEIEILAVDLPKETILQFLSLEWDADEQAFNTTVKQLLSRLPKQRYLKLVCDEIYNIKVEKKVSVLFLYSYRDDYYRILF
In general terms: Polarisation of emitted light reports the rotation of a fluorescent probe.

Chain of intracellular GCN2 (phosphorylation of the GCN2 substrate eIF2α) (Q9P2K8 whole entry): as above

Consider `Clc1ccc2ncc(-c3nccc(N4CCOC(c5cn[nH]c5)C4)n3)n2c1` (stereo not drawn) [I-20, 4-[2-(6-Chloroimidazo[1,2-a]pyridin-3-yl)pyrimidin-4-yl]-2-(1H-pyrazol-4-yl)morpholine], for which the IC50 in test [1] is under 500 nM. The Ki in test [2] is under 10 nM.

`CS(=O)(=O)N1CC2(CCCN(c3ccnc(-c4cnc5ccc(C(F)F)cn45)n3)C2)C1` [I-395, 6-(2-(6-(difluoromethyl)imidazo[1,2-a]pyridin-3-yl)pyrimidin-4-yl)-2-(methylsulfonyl)-2,6-diazaspiro[3.5]nonane]: the IC50 was in the range of 500 to 5000 nM in test [1] and 100 to 1000 nM in test [2].

With `Cc1nn(C)cc1[C@@H]1CN(c2nccc(-c3cnc4ccc(C(F)(F)F)cn34)n2)C[C@H](C)O1` [I-157, (2R,6S)-2-(1,3-dimethyl-1H-pyrazol-4-yl)-6-methyl-4-(4-(6-(trifluoromethyl)imidazo[1,2-a]pyridin-3-yl)pyrimidin-2-yl)morpholine], the IC50 in test [1] is under 500 nM; in test [2] it was 100 to 1000 nM.

Turning to `CN(C)C(=O)C1CCCN(c2ccnc(-c3cnc4ccc(C(F)(F)F)cn34)n2)C1` (stereo not drawn) [I-130, N,N-dimethyl-1-(2-(6-(trifluoromethyl)imidazo[1,2-a]pyridin-3-yl)pyrimidin-4-yl)piperidine-3-carboxamide], the IC50 fell in the range of 500 to 5000 nM in test [1] and 10 to 100 nM in test [2].

For the molecule `Cc1n[nH]cc1[C@@H]1CN(c2ccnc(-c3cnc4cc(Cl)c(C(F)(F)F)cn34)n2)C[C@@H](C)O1` [I-360, (2R,6R)-4-(2-(7-chloro-6-(trifluoromethyl)imidazo[1,2-a]pyridin-3-yl)pyrimidin-4-yl)-2-methyl-6-(3-methyl-1H-pyrazol-4-yl)morpholine], the IC50 in test [1] is under 500 nM; in test [2], under 10 nM.

In the case of `C[C@@H]1C[C@@H](c2cn[nH]c2)CN(c2nccc(-c3cnc4ccc(C5CC5)cn34)n2)C1` [I-236, 6-cyclopropyl-3-(2-((3R,5S)-3-methyl-5-(1H-pyrazol-4-yl)piperidin-1-yl)pyrimidin-4-yl)imidazo[1,2-a]pyridine], the IC50 is under 500 nM in test [1] and 10 to 100 nM in test [2].

On to `Clc1ccc2ncc(-c3nccc(N4CC5CC5(c5ccccc5)C4)n3)n2c1` (stereo not drawn) [I-84, 6-Chloro-3-[4-(1-phenyl-3-aza-bicyclo[3.1.0]hex-3-yl)-pyrimidin-2-yl]-imidazo[1,2-a]pyridine], for which the IC50 in test [1] is over 5000 nM. This molecule also showed a Ki in test [2] of 100 to 1000 nM.

Take `CC1[C@@H](c2cn[nH]c2)NCCN1c1ccnc(-c2cnc3ccc(C(F)(F)F)cn23)n1` (stereo partly drawn) [I-310, 3-(4-((3R)-2-methyl-3-(1H-pyrazol-4-yl)piperazin-1-yl)pyrimidin-2-yl)-6-(trifluoromethyl)imidazo[1,2-a]pyridine]: the IC50 in test [1] is under 500 nM; in test [2] it was under 10 nM.

Take `CC(C)(C)OC(=O)N1CC2(C1)CN(c1ccnc(-c3cnc4ccc(C(F)(F)F)cn34)n1)CCO2` [I-386, tert-butyl 8-(2-(6-(trifluoromethyl)imidazo[1,2-a]pyridin-3-yl)pyrimidin-4-yl)-5-oxa-2,8-diazaspiro[3.5]nonane-2-carboxylate]: the IC50 in test [1] was 500 to 5000 nM; in test [2], 100 to 1000 nM.

With `Cc1noc([C@@H]2CN(c3ccnc(-c4cnc5ccc(Cl)cn45)n3)C[C@H](C)O2)n1` [I-62], in test [1], the IC50 was in the range of 500 to 5000 nM. Moreover, the Ki in test [2] lay in the range of 10 to 100 nM.

For `CC1(C)CN(c2ccnc(-c3cnc4ccc(C(F)(F)F)cn34)n2)CC2(CNC2)O1` [I-294, 6,6-dimethyl-8-(2-(6-(trifluoromethyl)imidazo[1,2-a]pyridin-3-yl)pyrimidin-4-yl)-5-oxa-2,8-diazaspiro[3.5]nonane], the IC50 in test [1] is over 5000 nM; in test [2], 100 to 1000 nM.

For `CC1(CN2CCN(c3ccnc(-c4cnc5ccc(C(F)(F)F)cn45)n3)CC2c2cn[nH]c2)CC1` (stereo not drawn) [I-510, 3-(4-(4-((1-methylcyclopropyl)methyl)-3-(1H-pyrazol-4-yl)piperazin-1-yl)pyrimidin-2-yl)-6-(trifluoromethyl)imidazo[1,2-a]pyridine], the IC50 is under 500 nM in test [1] and under 10 nM in test [2].

Turning to `C[C@H]1CN(c2ccnc(-c3cnc4ccc(C(F)F)cn34)n2)C[C@@H](CO)O1` [I-524, ((2S,6S)-4-(2-(6-(difluoromethyl)imidazo[1,2-a]pyridin-3-yl)pyrimidin-4-yl)-6-methylmorpholin-2-yl)methanol], the IC50 lay in the range of 500 to 5000 nM in test [1] and 10 to 100 nM in test [2].

Take `Cc1cnc(N2C[C@@H](c3cn[nH]c3C)O[C@@H](C)C2)nc1-c1cnc2ccc(Cl)cn12` [I-203, (2S,6R)-4-(4-(6-chloroimidazo[1,2-a]pyridin-3-yl)-5-methylpyrimidin-2-yl)-2-methyl-6-(5-methyl-1H-pyrazol-4-yl)morpholine]: the IC50 was in the range of 500 to 5000 nM in test [1] and 10 to 100 nM in test [2].

As for `Cc1[nH]ncc1[C@H]1CN(c2ccnc(-c3cnc4cc(F)c(Cl)cn34)n2)C[C@@H](C)O1` [I-540, (2R,6S)-4-(2-(6-chloro-7-fluoroimidazo[1,2-a]pyridin-3-yl)pyrimidin-4-yl)-2-methyl-6-(5-methyl-1H-pyrazol-4-yl)morpholine], the IC50 was under 500 nM in test [1] and under 10 nM in test [2].

Regarding `C[C@H]1CN(c2nc(-c3cnc4ccc(C(F)F)cn34)ns2)C[C@@H](CNS(C)(=O)=O)C1(F)F` [I-103, N-(((3S,5S)-1-(3-(6-(difluoromethyl)imidazo[1,2-a]pyridin-3-yl)-1,2,4-thiadiazol-5-yl)-4,4-difluoro-5-methylpiperidin-3-yl)methyl)methanesulfonamide], the IC50 in test [1] is under 500 nM. In addition, in test [2], the Ki is under 10 nM.

As for `O=C1NCC2CN(c3ccnc(-c4cnc5ccc(C(F)(F)F)cn45)n3)CCN12` (stereo not drawn) [I-43, 7-[2-[6-(Trifluoromethyl)imidazo[1,2-a]pyridin-3-yl]pyrimidin-4-yl]-1,2,5,6,8,8a-hexahydroimidazo[1,5-a]pyrazin-3-one], the half-maximal inhibitory concentration (IC50) in test [1] was in the range of 500 to 5000 nM. The Ki in test [2] is under 10 nM.

Turning to `C[C@H]1CN(c2nccc(-c3cnc4cc(F)c(Cl)cn34)n2)C[C@H](c2cn[nH]c2)O1` [I-275, (2S,6S)-4-(4-(6-chloro-7-fluoroimidazo[1,2-a]pyridin-3-yl)pyrimidin-2-yl)-2-methyl-6-(1H-pyrazol-4-yl)morpholine], the half-maximal inhibitory concentration (IC50) in test [1] is 500 to 5000 nM; in test [2], under 10 nM.

`C[C@@H]1[C@H]([C@@H](C)NS(C)(=O)=O)N(C2CC2)CCN1c1ccnc(-c2cnc3ccc(C(F)(F)F)cn23)n1` [I-505, N—((R)-1-((2R,3R)-1-cyclopropyl-3-methyl-4-(2-(6-(trifluoromethyl)imidazo[1,2-a]pyridin-3-yl)pyrimidin-4-yl)piperazin-2-yl)ethyl)methanesulfonamide]: the results for the half-inhibitory concentration (IC50) in test [1] and in test [2] were over 5000 nM and 100 to 1000 nM, respectively.

As for `CC(C)n1cc(C2(O)CCCN(c3ccnc(-c4cnc5ccc(Cl)cn45)n3)C2)nn1` (stereo not drawn) [I-76, 1-[2-(6-Chloro-imidazo[1,2-a]pyridin-3-yl)-pyrimidin-4-yl]-3-(1-isopropyl-1H-[1,2,3]triazol-4-yl)-piperidin-3-ol], the IC50 in test [1] was over 5000 nM. The molecule also returned a Ki in test [2] of 100 to 1000 nM.

As to `C[C@H](NS(C)(=O)=O)[C@H]1[C@@H](C)N(c2ccnc(-c3cnc4ccc(C(F)(F)F)cn34)n2)CCN1C1CC1` [I-507, N—((S)-1-((2R,3R)-1-cyclopropyl-3-methyl-4-(2-(6-(trifluoromethyl)imidazo[1,2-a]pyridin-3-yl)pyrimidin-4-yl)piperazin-2-yl)ethyl)methanesulfonamide], the IC50 in test [1] is 500 to 5000 nM; in test [2], 100 to 1000 nM.

For `C[C@H]1C[C@@H](N=S(C)(C)=O)CN(c2nccc(-c3cnc4ccc(Cl)cn34)n2)C1` (stereo in doubt) [I-159, (((3R,5S)-1-(4-(6-chloroimidazo[1,2-a]pyridin-3-yl)pyrimidin-2-yl)-5-methylpiperidin-3-yl)imino)dimethyl-λ6-sulfanone], the IC50 in test [1] is under 500 nM; in test [2], 10 to 100 nM.

`FC(F)(F)c1ccc2ncc(-c3nccc(N4CCN(CC5C6COCC65)C(c5cn[nH]c5)C4)n3)n2c1` (stereo not drawn) [I-370, 3-(4-(4-((3-oxabicyclo[3.1.0]hexan-6-yl)methyl)-3-(1H-pyrazol-4-yl)piperazin-1-yl)pyrimidin-2-yl)-6-(trifluoromethyl)imidazo[1,2-a]pyridine]: the IC50 in test [1] is under 500 nM; in test [2], under 10 nM.

Regarding `N#C[C@H]1CCCN(c2ccnc(-c3cnc4ccc(C(F)(F)F)cn34)n2)C1` [I-227, (S)-1-(2-(6-(trifluoromethyl)imidazo[1,2-a]pyridin-3-yl)pyrimidin-4-yl)piperidine-3-carbonitrile], the IC50 in test [1] was in the range of 500 to 5000 nM; in test [2], 10 to 100 nM.

In the case of `CS(=O)(=O)NC1CC(C(F)(F)F)CN(c2nccc(-c3cnc4ccc(C(F)F)cn34)n2)C1` (stereo not drawn) [I-525, N-(1-(4-(6-(difluoromethyl)imidazo[1,2-a]pyridin-3-yl)pyrimidin-2-yl)-5-(trifluoromethyl)piperidin-3-yl)methanesulfonamide], the IC50 in test [1] lay within 500 to 5000 nM; in test [2], 10 to 100 nM.

For `O=S(=O)(NC1CC1)c1ccc2ncc(-c3nccc(N4CCCC(c5cn[nH]c5)C4)n3)n2c1` (stereo not drawn) [I-318, 3-(4-(3-(1H-pyrazol-4-yl)piperidin-1-yl)pyrimidin-2-yl)-N-cyclopropylimidazo[1,2-a]pyridine-6-sulfonamide], the IC50 was over 5000 nM in test [1] and 100 to 1000 nM in test [2].

Take `NC(=O)[C@@H]1CN(c2ccnc(-c3cnc4cc(F)c(Cl)cn34)n2)CCN1C1CC1` [I-424, (S)-4-(2-(6-chloro-7-fluoroimidazo[1,2-a]pyridin-3-yl)pyrimidin-4-yl)-1-cyclopropylpiperazine-2-carboxamide]: the results for the IC50 in test [1] and in test [2] were 500 to 5000 nM and 10 to 100 nM, respectively.

For orientation: IC50 means the concentration that gives 50% inhibition.
